Data taken from PubChem BioAssay AID2060497 (Molecular Pharmacology Branch, DTP, NCI, 2025).
pIC50: −log10 of the molar value.

Tested on: 317291-083-R-J1-PDC complex spheroids, viability
Experiment: Anticancer human tumor 317291-083-R-J1-PDC patient-derived soft tissue sarcoma cell line growth inhibition [GQUAD]
Settings: for pIC50: curve of first compound; for viability, T/C: stronger effect = lower value; active = viability on the fitted dose curve at most 10% of control; inactive = the rest
In short: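 Tumor cells were grown as complex spheroids with HUVEC endothelial cells and mesenchymal stem cells as stroma. G-quadruplex stabilizers were combined with targeted agents over half-log dilutions from near the clinical Cmax, or from 10 microM.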

[1] = second compound 0.0316 µM, first compound 0.0316 µM
[2] = second compound 0.0316 µM, first compound 0.316 µM
[3] = second compound 0.1 µM, first compound 0.0316 µM
[4] = second compound 0.1 µM, first compound 0.316 µM
[5] = second compound 0.316 µM, first compound 0.0316 µM
[6] = second compound 0.316 µM, first compound 0.316 µM
[7] = second compound 1 µM, first compound 0.0316 µM
[8] = second compound 1 µM, first compound 0.316 µM
[9] = second compound 3.16 µM, first compound 0.0316 µM
[10] = second compound 3.16 µM, first compound 0.316 µM
[11] = second compound 10 µM, first compound 0.0316 µM
[12] = second compound 10 µM, first compound 0.316 µM
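Also: spheroids exposed to compounds for one week before readout.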
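For viability, T/C in this document: percent viability relative to DMSO vehicle wells taken as 100%.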

Cc1[nH]c2ccccc2c1CCNCc1ccc(/C=C/C(=O)NO)cc1 + Cc1cnc(CNC(=O)c2c(=O)c3ccc(N4CCCN(C)CC4)nc3n3c2sc2ccccc23)cn1
8.80: pIC50 (second compound 0.316 µM)
7.27: pIC50 (second compound 0.0316 µM)
active: viability, T/C [2] 0.98% | viability, T/C [4] 0.49% | viability, T/C [6] 0.46% | viability, T/C [8] 0.1% | viability, T/C [9] 0.4% | viability, T/C (second compound 3.16 µM, first compound 0.0999 µM) 0.16% | viability, T/C [10] 0.22% | viability, T/C (second compound 10 µM, first compound 0.000999 µM) 3.89% | viability, T/C (second compound 10 µM, first compound 0.00316 µM) 11.2% | viability, T/C (second compound 10 µM, first compound 0.00999 µM) 0.33% | viability, T/C [11] 1.81% | viability, T/C (second compound 10 µM, first compound 0.0999 µM) 0.47% | viability, T/C [12] 0.44%
> 9.00: pIC50 (second compound 1 µM) | pIC50 (second compound 3.16 µM) | pIC50 (second compound 10 µM)
7.70: pIC50 (second compound 0.1 µM)
inactive: viability, T/C (second compound 0.0316 µM, first compound 0.000999 µM) 101% | viability, T/C (second compound 0.0316 µM, first compound 0.00316 µM) 80.9% | viability, T/C (second compound 0.0316 µM, first compound 0.00999 µM) 103% | viability, T/C [1] 80% | viability, T/C (second compound 0.0316 µM, first compound 0.0999 µM) 15.5% | viability, T/C (second compound 0.1 µM, first compound 0.000999 µM) 67.3% | viability, T/C (second compound 0.1 µM, first compound 0.00316 µM) 54.2% | viability, T/C (second compound 0.1 µM, first compound 0.00999 µM) 55.2% | viability, T/C [3] 46.1% | viability, T/C (second compound 0.1 µM, first compound 0.0999 µM) 12.2% | viability, T/C (second compound 0.316 µM, first compound 0.000999 µM) 59% | viability, T/C (second compound 0.316 µM, first compound 0.00316 µM) 35.4% | viability, T/C (second compound 0.316 µM, first compound 0.00999 µM) 31.4% | viability, T/C [5] 25.5% | viability, T/C (second compound 0.316 µM, first compound 0.0999 µM) 14.5% | viability, T/C (second compound 1 µM, first compound 0.000999 µM) 34.4% | viability, T/C (second compound 1 µM, first compound 0.00316 µM) 20.5% | viability, T/C (second compound 1 µM, first compound 0.00999 µM) 34.5% | viability, T/C [7] 26% | viability, T/C (second compound 1 µM, first compound 0.0999 µM) 7.38% | viability, T/C (second compound 3.16 µM, first compound 0.000999 µM) 27.3% | viability, T/C (second compound 3.16 µM, first compound 0.00316 µM) 41.7% | viability, T/C (second compound 3.16 µM, first compound 0.00999 µM) 50%

O=C(NO)c1cnc(N2CCN(S(=O)(=O)c3ccc4ccccc4c3)CC2)nc1 + Cc1cnc(CNC(=O)c2c(=O)c3ccc(N4CCCN(C)CC4)nc3n3c2sc2ccccc23)cn1
active: viability, T/C [2] 7.38% | viability, T/C (second compound 0.0316 µM, first compound 1 µM) 0.63% | viability, T/C (second compound 0.0316 µM, first compound 3.16 µM) 0.05% | viability, T/C (second compound 0.0316 µM, first compound 10 µM) 0.08% | viability, T/C [4] 6.03% | viability, T/C (second compound 0.1 µM, first compound 1 µM) 0.12% | viability, T/C (second compound 0.1 µM, first compound 3.16 µM) 0.03% | viability, T/C (second compound 0.1 µM, first compound 10 µM) 0.29% | viability, T/C [6] 5.28% | viability, T/C (second compound 0.316 µM, first compound 1 µM) 0.07% | viability, T/C (second compound 0.316 µM, first compound 3.16 µM) 0.02% | viability, T/C (second compound 0.316 µM, first compound 10 µM) 0.62% | viability, T/C [8] 2.02% | viability, T/C (second compound 1 µM, first compound 1 µM) 0.07% | viability, T/C (second compound 1 µM, first compound 3.16 µM) 0.04% | viability, T/C (second compound 1 µM, first compound 10 µM) 0.08% | viability, T/C [9] 8.49% | viability, T/C (second compound 3.16 µM, first compound 0.1 µM) 0.73% | viability, T/C [10] 1.12% | viability, T/C (second compound 3.16 µM, first compound 1 µM) 1.06% | viability, T/C (second compound 3.16 µM, first compound 3.16 µM) 0.08% | viability, T/C (second compound 3.16 µM, first compound 10 µM) 0.11% | viability, T/C [11] 0.07% | viability, T/C (second compound 10 µM, first compound 0.1 µM) 0.11% | viability, T/C [12] 0.16% | viability, T/C (second compound 10 µM, first compound 1 µM) 0.1% | viability, T/C (second compound 10 µM, first compound 3.16 µM) 0.18% | viability, T/C (second compound 10 µM, first compound 10 µM) 0.18%
> 7.50: pIC50 (second compound 0.1 µM) | pIC50 (second compound 0.316 µM) | pIC50 (second compound 1 µM) | pIC50 (second compound 3.16 µM) | pIC50 (second compound 10 µM)
inactive: viability, T/C [1] 82.5% | viability, T/C (second compound 0.0316 µM, first compound 0.1 µM) 53.5% | viability, T/C [3] 47.2% | viability, T/C (second compound 0.1 µM, first compound 0.1 µM) 41.8% | viability, T/C [5] 44.2% | viability, T/C (second compound 0.316 µM, first compound 0.1 µM) 45.2% | viability, T/C [7] 43.9% | viability, T/C (second compound 1 µM, first compound 0.1 µM) 15.2%
6.96: pIC50 (second compound 0.0316 µM)
